One data set concerns Ba/F3 parental cells. Kind of data set: Cell proliferation analysis, Ba/F3 parental. As to conditions: Mus musculus, BaF3, 72 h; 8 ng/ml IL-3, 3 days, CellTiter-Glo. Format: cell-based. The protocol: (§1) The inhibitory effect of the example compounds on Ba/F3, Ba/F3 Bcr-Abl T315I cell activity was determined.
(§2) Materials and reagents: RPMI-1640 medium (GIBCO, Catalog No. A10491-01), fetal bovine serum (GIBCO, Catalog No. 10099141), antibiotics (Penicillin-Streptomycin), IL-3 (PeproTech), promycin; cell lines: Ba/F3, Ba/F3 Bcr-Abl T315I (Purchased from American type culture collection, ATCC), live cell detection kit […] (Promega, Catalog No. G7572), 96-well black wall transparent flat bottom cell culture plate (Corning, Catalog No. 3340).
(§3) Test method: 1. Preparation of cell plate: Ba/F3, Ba/F3 Bcr-Abl T315I cells were respectively seeded in 96-well plates, and 8 ng/ml IL-3 was added to the Ba/F3 cells, and the cell plates were placed in a carbon dioxide incubator and cultured overnight. 2. The test compounds were dissolved in DMSO, 9 compound concentrations were made with a 3.16-fold gradient dilution in triplicate. 3. Treatment of the cells with compounds: The compounds were transferred to the cell plate with a starting concentration of 10 μM. The cell plate was placed in a carbon dioxide incubator for 3 days. 4. Detection: CellTiter-Glo agent was added to the cell plate, and incubated at room temperature for 30 minutes to stabilize the luminous signal. PerkinElmer Envision multi-label analyzer was used for reading, wherein A represents […], B represents IC50 is 10-20 nM, C represents IC50 is 20-50 nM, D represents IC50 is 50-1000 nM, E represents IC50>1000 nM.
A general note: In ATP-based viability assays light output follows the ATP content of the culture.

For another data set, the target named is ABL^T315I (Homo sapiens (Human), UniProt P00519, T315I). Kind of data set: Biochemical kinase analysis, ABL T315I. The protocol:
(§4) Reagents and materials: ABL (ThermoFisher, Cat. No PV3585), ABL^T315I (Thermo Fisher, Cat. No. PR7429B), ATP (Sigma, Cat. No. A7699-1G), DMSO (Sigma, Cat. No. D2650), 96-well plate (Corning, Cat. No. 3365), 384-well plate (Greiner, Cat. No. 784076), buffer solution (Thermo Fisher, Cat. No. PR4876B).
(§5) Compound formulation: The test compounds were dissolved in DMSO to prepare a 20 mM stock solution. Before use, the compounds were diluted in DMSO to 0.1 mM, and diluted into 11 concentrations with a 3-fold gradient. When addition, diluentions of 4-fold final concentration were then made with buffer solution.
(§6) Kinase assay method: After preparing the buffer, the enzyme was mixed with pre-formulated and diluted compounds of different concentrations in duplicate for each concentration, and placed at room temperature for 30 minutes. The corresponding substrate and ATP were added thereto, and reacted at room temperature for 60 minutes (both a negative and a positive control were set). After the reaction, antibody was added for detection, Envision detection was carried out after 60 minutes incubation at room temperature, and data was collected. Data analysis and fitting were made according to XLfit5 software, wherein, A represents IC50≤5 nM, B represents IC50 is 5-50 nM, C represents IC50 is 50-100 nM, D represents IC50>100 nM.

A further data set addresses ABL (Homo sapiens (Human), UniProt P00519). Kind of data set: Biochemical kinase analysis, ABL. The protocol: as §4, §5, §6
Data set [1] deals with Ba/F3 Bcr-Abl T315I cells. The data set is described as follows: Cell proliferation analysis, Ba/F3 Bcr-Abl T315I. It is filed as cell-based. Conditions: for IC50: Mus musculus, BaF3, 72 h, 3 days, CellTiter-Glo; for Selectivity [Ba/F3 (parental/Bcr-Abl ^T315I)]: ratio of Ba/F3 parental to Ba/F3 Bcr-Abl T315I. The protocol: as §1, §2, §3
Data set [2] in a line: Metabolic stability evaluation, human liver microsome assay. Conditions: pH 7.4, human liver microsomes 0.5 mg/mL, compound 1 μM, 37° C.; for microsomal CLint at 1 μM: read-out: HLM Clint; for half-life at 1 μM: read-out: HLM T1/2. Format: in vitro ADME. The protocol: Microsome assay: human liver microsomes: 0.5 mg/mL, Xenotech; coenzyme (NADPH/NADH): 1 mM, Sigma Life Science; magnesium chloride: 5 mM, 100 mM phosphate buffer (pH is 7.4).
Preparation of stock solution: Powder of the example compounds and the reference compound were accurately weighed, and dissolved to 5 mM with DMSO, respectively.
Preparation of phosphate buffer (100 mM, pH7.4): Pre-formulated 150 mL 0.5 M potassium dihydrogen phosphate and 700 mL 0.5 M dipotassium hydrogen phosphate were mixed, then the pH of the mixture was adjusted to 7.4 with 0.5 M dipotassium hydrogen phosphate. Before use, 5-fold dilution was made with ultra-pure water, and magnesium chloride was added to afford phosphate buffer (100 mM), which containing 100 mM potassium phosphate, 3.3 mM magnesium chloride, and pH is 7.4.
NADPH regeneration system solution (containing 6.5 mM NADP, 16.5 mM G-6-P, 3 U/mL G-6-P D, 3.3 mM magnesium chloride) was prepared and placed on wet ice before use.
Preparation of stop solution: Acetonitrile solution containing 50 ng/mL propranolol hydrochloride and 200 ng/mL tolbutamide (internal standard). 25057.5 μL phosphate buffer (pH 7.4) was taken into a 50 mL centrifuge tube, and 812.5 μL human liver microsome was added respectively, mixed well to afford liver microsome diluention with a protein concentration of 0.625 mg/mL.
Incubation of the sample: The stock solutions of the corresponding compounds were diluted to 0.25 mM with an aqueous solution containing 70% acetonitrile as working solutions for use. 398 μL of human liver microsome diluention was taken and added to a 96-well incubation plate (N=2), respectively, and 2 μL of 0.25 mM working solutions were then added respectively, and mixed well.
Determination of metabolic stability: 300 μL of pre-chilled stop solution was added to each well of a 96-well deep well plate and the plate was placed on ice as a stop plate. The 96-well incubation plate and NADPH regeneration system were placed in a 37° C. water bath, shook at 100 rpm, and pre-incubated for 5 min. 80 μL of incubation solution was taken from each well of the incubation plate and added to the stop plate, mixed well, and 20 μL of NADPH regeneration system solution was supplemented, the resulted solution was considered as sample at 0 min. Then 80 μL of NADPH regeneration system solution was added to each well of the incubation plate to start the reaction and started timing. The reaction concentration of the corresponding compound is 1 μM, and the protein concentration is 0.5 mg/mL. 100 μL reaction solution was taken at 10, 30, 90 min of reaction, respectively, and added into stop plate, the reaction was stopped with 3 min vortex. The stop plate was centrifuged at 5000×g, 4° C. for 10 min. 100 μL of supernatant was taken to a 96-well plate where 100 μL of distilled water was added in advance, mixed well, sample analysis was carried out by LC-MS/MS.
Data analysis: LC-MS/MS system was used to detect peak area of corresponding compound and internal standard, peak area ratio of compound to internal standard was calculated. The slope was measured by plotting the natural logarithm of the remaining percentage of the compound versus time, and t1/2 and CLint were calculated according to the following formula, wherein V/M means 1/protein concentration.
(Liver microsomes are a subcellular fraction often used to study metabolism.)

Some results are limits rather than exact numbers.

In the case of `CCn1cc(C#Cc2cc(C(=O)Nc3ccc(CN4CCN(C)CC4)c(C(F)(F)F)c3)ccc2C)c2c(N)ncnc21` [Example 5, 3-((4-amino-7-ethyl-7H-pyrrolo[2,3-d]pyrimidin-5-yl)ethynyl)-4-methyl-N-(4-((4-methylpiperazin-1-yl)methyl)-3-(trifluoromethyl)phenyl)benzamide], the half-inhibitory concentration (IC50) was 0.05 to 1 µM in the data set with Ba/F3 parental cells, at most 0.005 µM against ABL^T315I, at most 0.005 µM on ABL and at most 0.01 µM in data set [1]. Further, the “Selectivity [Ba/F3 (parental/Bcr-Abl ^T315I)]” value in data set [1] is 100~150. Also, in data set [2], the microsomal CLint at 1 μM turned out to be 19.9 µL/min/mg. Moreover, the half-life at 1 μM in data set [2] was 1.16 h.
Take `CCn1cc(C#Cc2cc(C(=O)Nc3cccc(C(F)(F)F)c3)ccc2C)c2c(N)ncnc21` [Example 6, 3-((4-amino-7-ethyl-7H-pyrrolo[2,3-d]pyrimidin-5-yl)ethynyl)-4-methyl-N-(3-(trifluoromethyl)phenyl)benzamide]: the 50% inhibitory concentration (IC50) in the data set on Ba/F3 parental cells was above 1 µM; on ABL^T315I it was at most 0.005 µM; against ABL, at most 0.005 µM; in data set [1], 0.01 to 0.02 µM. In data set [1], the “Selectivity [Ba/F3 (parental/Bcr-Abl ^T315I)]” value is given as 100~150. The microsomal CLint at 1 μM in data set [2] is 3.5 µL/min/mg. Moreover, the half-life at 1 μM in data set [2] is 6.58 h.
Consider `Cc1cn(-c2cc(NC(=O)c3ccc(C)c(C#Cc4cn(C(C)C)c5ncnc(N)c45)c3)cc(C(F)(F)F)c2)cn1` [Example 12, 3-((4-amino-7-isopropyl-7H-pyrrolo[2,3-d]pyrimidin-5-yl)ethynyl)-4-methyl-N-(3-(4-methyl-1H-imidazol-1-yl)-5-(trifluoromethyl)phenyl)benzamide], for which the IC50 with Ba/F3 parental cells was above 1 µM; against ABL^T315I, 0.005 to 0.05 µM; against ABL it was 0.005 to 0.05 µM; in data set [1], 0.02 to 0.05 µM. In data set [1], the “Selectivity [Ba/F3 (parental/Bcr-Abl ^T315I)]” value is 150~500. The microsomal CLint at 1 μM in data set [2] was 20.9 µL/min/mg. Besides, in data set [2], the half-life at 1 μM is 1.11 h.
Take `Cc1ccc(C(=O)Nc2ccc(CN3CCN(C)CC3)c(C(F)(F)F)c2)cc1C#Cc1cn(C(C)C)c2ncnc(N)c12` [Example 15, 3-((4-amino-7-isopropyl-7H-pyrrolo[2,3-d]pyrimidin-5-yl)ethynyl)-4-methyl-N-(4-((4-methylpiperazin-1-yl)methyl)-3-(trifluoromethyl)phenyl)benzamide]: the IC50 was above 1 µM in the data set on Ba/F3 parental cells, at most 0.005 µM against ABL^T315I, at most 0.005 µM against ABL and 0.02 to 0.05 µM in data set [1]. For the same compound, the “Selectivity [Ba/F3 (parental/Bcr-Abl ^T315I)]” value in data set [1] is 0~50. In addition, the microsomal CLint at 1 μM in data set [2] worked out at 11.8 µL/min/mg. In addition, in data set [2], the half-life at 1 μM turned out to be 1.95 h.
As to `CCn1cc(C#Cc2cc(NC(=O)c3cccc(C(F)(F)F)c3)ccc2C)c2c(N)ncnc21` [Example 17, N-(3-((4-amino-7-ethyl-7H-pyrrolo[2,3-d]pyrimidin-5-yl)ethynyl)-4-methylphenyl)-3-(trifluoromethyl)benzamide], the IC50 in the data set with Ba/F3 parental cells was above 1 µM; on ABL^T315I, at most 0.005 µM; at ABL, at most 0.005 µM; in data set [1], 0.01 to 0.02 µM. In data set [1], the “Selectivity [Ba/F3 (parental/Bcr-Abl ^T315I)]” value is recorded as 50~100. Moreover, in data set [2], the microsomal CLint at 1 μM was found to be 17.2 µL/min/mg. Further, the half-life at 1 μM in data set [2] was determined as 1.34 h.
With `CCn1cc(C#Cc2cc(NC(=O)c3ccc(CN4CCN(C)CC4)c(C(F)(F)F)c3)ccc2C)c2c(N)ncnc21` [Example 18, N-(3-((4-amino-7-ethyl-7H-pyrrolo[2,3-d]pyrimidin-5-yl)ethynyl)-4-methylphenyl)-4-((4-methylpiperazin-1-yl)methyl)-3-(trifluoromethyl)benzamide], the half-inhibitory concentration (IC50) in the data set on Ba/F3 parental cells was above 1 µM; against ABL^T315I, at most 0.005 µM; against ABL, at most 0.005 µM; in data set [1], at most 0.01 µM. Moreover, the “Selectivity [Ba/F3 (parental/Bcr-Abl ^T315I)]” value in data set [1] is given as 100~150. In addition, in data set [2], the microsomal CLint at 1 μM stood at 17 µL/min/mg. For the same compound, in data set [2], the half-life at 1 μM amounted to 1.36 h.
On to `Cc1ccc(C(=O)Nc2ccc(CN3CCN(C)CC3)c(C(F)(F)F)c2)cc1C#Cc1cn([C@H]2CC[C@H](O)CC2)c2ncnc(N)c12` [Example 22, 3-((4-amino-7-((1r,4r)-4-hydroxycyclohexyl)-7H-pyrrolo[2,3-d]pyrimidin-5-yl)ethynyl)-4-methyl-N-(4-((4-methylpiperazin-1-yl)methyl)-3-(trifluoromethyl)phenyl)benzamide], for which the IC50 is above 1 µM in the data set with Ba/F3 parental cells, at most 0.005 µM against ABL^T315I, at most 0.005 µM at ABL and 0.02 to 0.05 µM in data set [1]. Further, the “Selectivity [Ba/F3 (parental/Bcr-Abl ^T315I)]” value in data set [1] is listed as 0~50. Besides, the microsomal CLint at 1 μM in data set [2] came to 6.1 µL/min/mg. Further, the half-life at 1 μM in data set [2] is 3.8 h.
As to `Cc1ccc(C(=O)Nc2ccc(C)c(C(F)(F)F)c2)cc1C#Cc1cn([C@H]2CC[C@H](O)CC2)c2ncnc(N)c12` [Example 24, 3-((4-amino-7-((1r,4r)-4-hydroxycyclohexyl)-7H-pyrrolo[2,3-d]pyrimidin-5-yl)ethynyl)-4-methyl-N-(4-methyl-3-(trifluoromethyl)phenyl)benzamide], the 50% inhibitory concentration (IC50) in the data set on Ba/F3 parental cells is above 1 µM; on ABL^T315I it was 0.005 to 0.05 µM; at ABL, at most 0.005 µM; in data set [1] it was 0.01 to 0.02 µM. For the same compound, the “Selectivity [Ba/F3 (parental/Bcr-Abl ^T315I)]” value in data set [1] was 150~500.

For orientation: IC50 means the midpoint of a concentration-inhibition curve.

For the origin of these results see patent US11840535B2, “Alkynyl(hetero)aromatic compound for inhibiting protein kinase activity” (Shenzhen TargetRx, Inc., priority 2018, dated 2023).
